Measurements: patent publication US20200190087A1 (priority 2016, published 2020)

Columns and labels:
[1] = target: T1, human μ-opioid receptor (Homo sapiens, UniProt P35372); assay: Human μ-opioid receptor radioligand assay ([3H]-DAMGO); type: binding; conditions: transfected CHO-K1 cell membranes, 1 nM [3H]-DAMGO, binding expressed as Ki; read-out: Mu binding activity
T1 construct: expressed in transfected cells; host or cells: CHO-K1
Protocol: Human μ-Opioid Receptor Radioligand Assay
To investigate binding properties of test compounds to human μ-opioid receptor, transfected CHO-K1 cell membranes and [^3H]-DAMGO (Perkin Elmer, ES-542-C), as the radioligand, were used. The assay was carried out with 20 μg of membrane suspension, 1 nM of [^3H]-DAMGO in either absence or presence of either buffer or 10 μM Naloxone for total and non-specific binding, respectively. Binding buffer contained Tris-HCl 50 mM, MgCl2 5 mM at pH 7.4. Plates were incubated at 27° C. for 60 minutes. After the incubation period, the reaction mix was then transferred to MultiScreen HTS, FC plates (Millipore), filtered and plates were washed 3 times with ice-cold 10 mM Tris-HCL (pH 7.4). Filters were dried and counted at approximately 40% efficiency in a MicroBeta scintillation counter (Perkin-Elmer) using EcoScint liquid scintillation cocktail. Preferably, transfected CHO-K1 cell membranes (20 μg) were incubated with 1 nM of [^3H]-DAMGO in assay buffer containing Tris-HCl 50 mM, MgCl2 5 mM at pH 7.4. NBS (non-specific binding) was measured by adding 10 μM Naloxone. The binding of the test compound was measured at five different concentrations. Plates were incubated at 27° C. for 60 minutes. After the incubation period, the reaction mix was then transferred to MultiScreen HTS, FC plates (Millipore), filtered and plates were washed 3 times with ice-cold 10 mM Tris-HCL (pH 7.4). Filters were dried and counted at approximately 40% efficiency in a MicroBeta scintillation counter (Perkin-Elmer) using EcoScint liquid scintillation cocktail.

[2] = target: Human α2δ-1 subunit of Cav2.2 calcium channel (Homo sapiens, UniProt P54289); assay: Human α2δ-1 subunit of Cav2.2 calcium channel assay ([3H]-Gabapentin binding); conditions: human α2δ-1 enriched membranes, 15 nM [3H]-Gabapentin, binding expressed as Ki; read-out: α2δ1 binding activity
Protocol: Human α2δ-1 Subunit of Cav2.2 Calcium Channel Assay
Human α2δ-1 enriched membranes (2.5 μg) were incubated with 15 nM of radiolabeled [3H]-Gabapentin in assay buffer containing Hepes-KOH 10 mM, pH 7.4. NSB (non specific binding) was measured by adding 10 μM pregabalin. The binding of the test compound was measured at five different concentrations. After 60 min incubation at 27° C., binding reaction was terminated by filtering through Multiscreen GF/C (Millipore) presoaked in 0.5% polyethyleneimine in Vacuum Manifold Station, followed by 3 washes with ice-cold filtration buffer containing 50 mM Tris-HCl, pH 7.4. Filter plates were dried at 60° C. for 1 hour and 30 μl of scintillation cocktail were added to each well before radioactivity reading. Readings were performed in a Trilux 1450 Microbeta radioactive counter (Perkin Elmer).

Chain of Human α2δ-1 subunit of Cav2.2 calcium channel (P54289 25-1103): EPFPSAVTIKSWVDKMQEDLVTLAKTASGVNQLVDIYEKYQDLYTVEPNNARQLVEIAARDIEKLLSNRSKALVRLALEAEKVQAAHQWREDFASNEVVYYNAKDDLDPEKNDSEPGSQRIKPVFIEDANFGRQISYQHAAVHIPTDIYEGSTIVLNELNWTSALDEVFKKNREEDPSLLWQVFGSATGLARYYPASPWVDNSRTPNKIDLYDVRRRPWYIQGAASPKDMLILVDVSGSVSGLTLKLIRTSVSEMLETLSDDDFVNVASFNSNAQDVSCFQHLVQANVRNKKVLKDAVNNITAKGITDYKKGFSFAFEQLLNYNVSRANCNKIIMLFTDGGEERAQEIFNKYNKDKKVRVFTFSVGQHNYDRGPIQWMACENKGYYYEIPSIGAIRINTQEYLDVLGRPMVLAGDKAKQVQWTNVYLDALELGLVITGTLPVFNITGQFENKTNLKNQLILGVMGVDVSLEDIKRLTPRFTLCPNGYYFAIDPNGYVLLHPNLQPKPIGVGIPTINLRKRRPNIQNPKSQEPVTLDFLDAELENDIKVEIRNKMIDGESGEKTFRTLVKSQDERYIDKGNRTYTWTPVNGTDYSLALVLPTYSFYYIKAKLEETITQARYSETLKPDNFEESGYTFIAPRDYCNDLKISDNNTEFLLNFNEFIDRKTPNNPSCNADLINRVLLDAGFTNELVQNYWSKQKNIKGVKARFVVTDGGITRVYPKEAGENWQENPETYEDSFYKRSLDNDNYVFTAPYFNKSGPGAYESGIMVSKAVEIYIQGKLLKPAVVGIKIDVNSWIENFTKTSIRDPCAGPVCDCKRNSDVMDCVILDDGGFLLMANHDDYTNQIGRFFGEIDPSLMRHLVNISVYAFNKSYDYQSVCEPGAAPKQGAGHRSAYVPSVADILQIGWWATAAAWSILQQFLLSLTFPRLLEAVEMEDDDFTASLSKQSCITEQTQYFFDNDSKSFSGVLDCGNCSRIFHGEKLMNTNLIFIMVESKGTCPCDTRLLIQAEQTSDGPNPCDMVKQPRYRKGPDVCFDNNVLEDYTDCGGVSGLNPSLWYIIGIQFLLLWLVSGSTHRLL
T1 sequence (P35372 whole entry): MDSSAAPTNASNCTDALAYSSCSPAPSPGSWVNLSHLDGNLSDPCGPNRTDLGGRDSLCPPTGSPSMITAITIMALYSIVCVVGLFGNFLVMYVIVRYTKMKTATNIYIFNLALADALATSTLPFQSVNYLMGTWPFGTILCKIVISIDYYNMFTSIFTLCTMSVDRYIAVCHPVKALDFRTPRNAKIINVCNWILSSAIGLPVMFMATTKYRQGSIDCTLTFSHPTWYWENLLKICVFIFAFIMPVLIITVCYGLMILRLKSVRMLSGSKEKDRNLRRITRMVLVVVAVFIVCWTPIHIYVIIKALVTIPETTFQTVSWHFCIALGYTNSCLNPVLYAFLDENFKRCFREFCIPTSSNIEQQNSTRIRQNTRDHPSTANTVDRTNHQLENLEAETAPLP

Structure (SMILES)	Ki [1] [nM]	Ki [2] [nM]
CCOc1ccc(-n2nc3c(C4CCN(Cc5ncccc5Cl)CC4)nnc(C)c3c2C)c(F)c1 [Ex 51, 7-(1-((3-Chloropyridin-2-yl)methyl)piperidin-4-yl)-2-(4-ethoxy-2-fluorophenyl)-3,4-dimethyl-2H-pyrazolo[3,4-d]pyridazine]	> 500	500 to 3000
CCOc1ccc(-n2nc3c(C4CCN(Cc5cc(C(F)(F)F)ccn5)CC4)nnc(C)c3c2C)c(F)c1 [Ex 52, 2-(4-Ethoxy-2-fluorophenyl)-3,4-dimethyl-7-(1-((4-(trifluoromethyl)pyridin-2-yl)methyl)piperidin-4-yl)-2H-pyrazolo[3,4-d]pyridazine]	> 500	3000 to 5000
CCOc1ccc(-n2nc3c(C4CCN(Cc5ccc(Cl)cn5)CC4)nnc(C)c3c2C)c(F)c1 [Ex 53, 7-(1-((5-Chloropyridin-2-yl)methyl)piperidin-4-yl)-2-(4-ethoxy-2-fluorophenyl)-3,4-dimethyl-2H-pyrazolo[3,4-d]pyridazine]	> 500	500 to 3000
CCOc1ccc(-n2nc3c(C4CCN(Cc5ccc(O)cn5)CC4)nnc(C)c3c2C)c(F)c1 [Ex 54, 6-((4-(2-(4-Ethoxy-2-fluorophenyl)-3,4-dimethyl-2H-pyrazolo[3,4-d]pyridazin-7-yl)piperidin-1-yl)methyl)pyridin-3-ol]	> 500	500 to 3000
CCOc1ccc(-n2nc3c(C4CCN(Cc5ccc(F)cn5)CC4)nnc(C)c3c2C)c(F)c1 [Ex 55, 2-(4-Ethoxy-2-fluorophenyl)-7-(1-((5-fluoropyridin-2-yl)methyl)piperidin-4-yl)-3,4-dimethyl-2H-pyrazolo[3,4-d]pyridazine]	> 500	500 to 3000
CCOc1ccc(-n2nc3c(C4CCN(Cc5ccc(C(F)(F)F)cn5)CC4)nnc(C)c3c2C)c(F)c1 [Ex 56, 2-(4-Ethoxy-2-fluorophenyl)-3,4-dimethyl-7-(1-((5-(trifluoromethyl)pyridin-2-yl)methyl)piperidin-4-yl)-2H-pyrazolo[3,4-d]pyridazine]	> 500	500 to 3000
CCOc1ccc(-n2nc3c(C4CCN(CCc5ccncc5)CC4)nnc(C)c3c2C)c(F)c1 [Ex 57, 2-(4-Ethoxy-2-fluorophenyl)-3,4-dimethyl-7-(1-(2-(pyridin-4-yl)ethyl)piperidin-4-yl)-2H-pyrazolo[3,4-d]pyridazine]	> 500	500 to 3000
CCOc1ccc(-n2nc3c(C4CCN(CC(O)c5ccccc5)CC4)nnc(C)c3c2C)c(F)c1 (stereo not drawn) [Ex 58, 2-(4-(2-(4-Ethoxy-2-fluorophenyl)-3,4-dimethyl-2H-pyrazolo[3,4-d]pyridazin-7-yl)piperidin-1-yl)-1-phenylethan-1-ol]	> 500	500 to 3000
CCOc1ccc(-n2nc3c(C#N)nnc(C)c3c2C)c(F)c1 [Ex 59, 2-(4-Ethoxy-2-fluorophenyl)-3,4-dimethyl-2H-pyrazolo[3,4-d]pyridazine-7-carbonitrile]	> 500	≥ 5000
CCOc1ccc(-n2nc3c(CN4CCC(c5cccc(O)c5)CC4)nnc(C)c3c2C)c(F)c1 [Ex 60, 3-(1-((2-(4-Ethoxy-2-fluorophenyl)-3,4-dimethyl-2H-pyrazolo[3,4-d]pyridazin-7-yl)methyl)piperidin-4-yl)phenol]	> 500	500 to 3000
CCOc1ccc(-n2nc3c(C(C#N)C(=O)OC(C)(C)C)nnc(C)c3c2C)c(F)c1 (stereo not drawn) [Ex 61, tert-Butyl 2-cyano-2-(2-(4-ethoxy-2-fluorophenyl)-3,4-dimethyl-2H-pyrazolo[3,4-d]pyridazin-7-yl)acetate]	> 500	500 to 3000
CCOc1ccc(-n2nc3c(CC#N)nnc(C)c3c2C)c(F)c1 [Ex 62, 2-(2-(4-Ethoxy-2-fluorophenyl)-3,4-dimethyl-2H-pyrazolo[3,4-d]pyridazin-7-yl)acetonitrile]	> 500	500 to 3000
CCOc1ccc(-n2nc3c(CCNC(=O)OC(C)(C)C)nnc(C)c3c2C)c(F)c1 [Ex 63, tert-Butyl (2-(2-(4-ethoxy-2-fluorophenyl)-3,4-dimethyl-2H-pyrazolo[3,4-d]pyridazin-7-yl)ethyl)carbamate]	> 500	≥ 5000
CCOc1ccc(-n2nc3c(C(C#N)(Cc4ccccc4)C(=O)OC(C)(C)C)nnc(C)c3c2C)c(F)c1 (stereo not drawn) [Ex 64, tert-Butyl 2-cyano-2-(2-(4-ethoxy-2-fluorophenyl)-3,4-dimethyl-2H-pyrazolo[3,4-d]pyridazin-7-yl)-3-phenylpropanoate]	> 500	≥ 5000
CCOc1ccc(-n2nc3c(C(C#N)Cc4ccccc4)nnc(C)c3c2C)c(F)c1 (stereo not drawn) [Ex 65, 2-(2-(4-Ethoxy-2-fluorophenyl)-3,4-dimethyl-2H-pyrazolo[3,4-d]pyridazin-7-yl)-3-phenylpropanenitrile]	> 500	500 to 3000
